Values joined by “and” are separate entries in the source; they are usually repeats but may differ in a detail not shown here. Identical values can stand only once. Toxic doses and inconclusive results are not listed.

For 19 compounds, T/C results are on record in PubChem BioAssay AID330 (DTP/NCI, 2004).

The subject of this assay is P388 leukemia ip, CD2F1 mice, survival T/C. The assay can be described thus: NCI In Vivo Anticancer Drug Screen. Data for tumor model P388 Leukemia (intraperitoneal) in CD2F1 (CDF1) mice. The note with it: endpoint: median survival time, higher = longer survival. Put shortly: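 Mice carrying the transplanted tumor received test compound or vehicle. Survival was recorded in each group, and the value is the treated-group measurement divided by that of the vehicle-treated control group.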

The mark [1] stands for this setting: dose: 5.0 mg/kg/injection, schedule: Q01DX009 (ip), vehicle: saline.
[2] abbreviates: dose: 10.0 mg/kg/injection, schedule: Q01DX009 (ip), vehicle: saline.
The mark [3] stands for this setting: dose: 25.0 mg/kg/injection, schedule: Q01DX001 (ip), vehicle: Klucel (hydroxypropylcellulose) (HPC).
Where [4] appears, read: dose: 25.0 mg/kg/injection, schedule: Q01DX009 (ip), vehicle: Klucel (hydroxypropylcellulose) (HPC).
[5] abbreviates: dose: 50.0 mg/kg/injection, schedule: Q01DX009 (ip), vehicle: Klucel (hydroxypropylcellulose) (HPC).
[6] abbreviates: dose: 50.0 mg/kg/injection, schedule: Q01DX005 (ip), vehicle: saline with Tween-80.
Setting [7] is: dose: 100.0 mg/kg/injection, schedule: Q01DX005 (ip), vehicle: saline with Tween-80.
The mark [8] stands for this setting: dose: 200.0 mg/kg/injection, schedule: Q01DX005 (ip), vehicle: saline with Tween-80.
The mark [9] stands for this setting: dose: 100.0 mg/kg/injection, schedule: Q01DX009 (ip), vehicle: Klucel (hydroxypropylcellulose) (HPC).
[10] abbreviates: dose: 200.0 mg/kg/injection, schedule: Q01DX009 (ip), vehicle: Klucel (hydroxypropylcellulose) (HPC).
The mark [11] stands for this setting: dose: 12.5 mg/kg/injection, schedule: Q01DX005 (ip), vehicle: saline with Tween-80.
[12] abbreviates: dose: 25.0 mg/kg/injection, schedule: Q01DX005 (ip), vehicle: saline with Tween-80.

Regarding `CC(=O)OC1CC2C(C)(C)C(=O)C=CC2(C)C2CCC3(C)C(c4ccoc4)CC(=O)C3C12C` (stereo unspecified), the T/C (dose: 0.5 mg/kg/injection, schedule: Q01DX005 (ip), vehicle: Klucel (hydroxypropylcellulose) (HPC)) is 99 % of control; the T/C (dose: 1.0 mg/kg/injection, schedule: Q01DX005 (ip), vehicle: Klucel (hydroxypropylcellulose) (HPC)) was 100 % of control; the T/C (dose: 2.0 mg/kg/injection, schedule: Q01DX005 (ip), vehicle: Klucel (hydroxypropylcellulose) (HPC)) is 97 % of control; the T/C (dose: 4.0 mg/kg/injection, schedule: Q01DX005 (ip), vehicle: Klucel (hydroxypropylcellulose) (HPC)) is 100 % of control; the T/C (dose: 8.0 mg/kg/injection, schedule: Q01DX005 (ip), vehicle: Klucel (hydroxypropylcellulose) (HPC)) is 98 % of control.
Turning to `Clc1nn2nnnc2c2ccccc12`, the T/C runs as follows: under setting [1], 100 % of control and 96 % of control; under setting [2], 95 % of control and 97 % of control; (dose: 20.0 mg/kg/injection, schedule: Q01DX009 (ip), vehicle: saline) 89 % of control and 94 % of control; (dose: 40.0 mg/kg/injection, schedule: Q01DX009 (ip), vehicle: saline) 100 % of control and 91 % of control.
`COCCCNC1=C(Cl)C(=O)c2ccccc2C1=O`: the T/C (dose: 50.0 mg/kg/injection, schedule: Q01DX009 (ip), vehicle: saline with Tween-80) was 99 % of control; the T/C (dose: 100.0 mg/kg/injection, schedule: Q01DX009 (ip), vehicle: saline with Tween-80) was 117 % of control; the T/C (dose: 200.0 mg/kg/injection, schedule: Q01DX009 (ip), vehicle: saline with Tween-80) is 104 % of control.
Consider `CCN(CC)CCCOc1ncnc2ccc(Cl)cc12`, for which the T/C (dose: 25.0 mg/kg/injection, schedule: Q01DX005 (ip), vehicle: saline) was 98 % of control; the T/C (dose: 50.0 mg/kg/injection, schedule: Q01DX005 (ip), vehicle: saline) is 99 % of control; the T/C (dose: 100.0 mg/kg/injection, schedule: Q01DX005 (ip), vehicle: saline) was 93 % of control; the T/C (dose: 200.0 mg/kg/injection, schedule: Q01DX005 (ip), vehicle: saline) was 96 % of control.
With `CN(Cc1nc2ccccc2[nH]1)N=O`, the T/C was 97 % of control (dose: 100.0 mg/kg/injection, schedule: Q01DX001 (ip), vehicle: Klucel (hydroxypropylcellulose) (HPC)); 107 % of control (dose: 200.0 mg/kg/injection, schedule: Q01DX001 (ip), vehicle: Klucel (hydroxypropylcellulose) (HPC)); 102 % of control (dose: 400.0 mg/kg/injection, schedule: Q01DX001 (ip), vehicle: Klucel (hydroxypropylcellulose) (HPC)).
On to `O=S(=O)(F)c1ccc(Cl)cc1C[P+](c1ccccc1)(c1ccccc1)c1ccccc1`, for which, under setting [3], the T/C was 115 % of control and 120 % of control.
Turning to `O=[N+]([O-])/C=C\c1ccc(/C=C/[N+](=O)[O-])cc1`, the T/C is, setting by setting: (dose: 1.25 mg/kg/injection, schedule: Q01DX009 (ip), vehicle: saline) 103 % of control and 107 % of control; (dose: 1.25 mg/kg/injection, schedule: Q01DX009 (ip), vehicle: suspension in saline) 103 % of control; (dose: 2.5 mg/kg/injection, schedule: Q01DX009 (ip), vehicle: saline) 100 % of control and 108 % of control; (dose: 2.5 mg/kg/injection, schedule: Q01DX009 (ip), vehicle: suspension in saline) 116 % of control; under setting [1], 104 % of control and 107 % of control; (dose: 5.0 mg/kg/injection, schedule: Q01DX009 (ip), vehicle: suspension in saline) 114 % of control. Also, the T/C under setting [2] was 106 % of control and 116 % of control; the T/C (dose: 10.0 mg/kg/injection, schedule: Q01DX009 (ip), vehicle: suspension in saline) was 116 % of control.
As for `CNC(=O)OCc1c(COC(=O)NC)c(C)n(-c2ccc(OC)cc2)c1C`, the T/C is, setting by setting: (dose: 12.5 mg/kg/injection, schedule: Q01DX009 (ip), vehicle: Klucel (hydroxypropylcellulose) (HPC)) 152 % of control; under setting [4], 153 % of control; under setting [5], 171 % of control.
`NC1(c2ccccc2)CC2CCC1C2` (stereo unspecified): the T/C is, setting by setting: (dose: 12.5 mg/kg/injection, schedule: Q01DX001 (ip), vehicle: Klucel (hydroxypropylcellulose) (HPC)) 100 % of control; under setting [3], 100 % of control; (dose: 50.0 mg/kg/injection, schedule: Q01DX001 (ip), vehicle: Klucel (hydroxypropylcellulose) (HPC)) 100 % of control.
Turning to `Clc1cccc(Cl)c1C(Nc1nncs1)Nc1nncs1`, the T/C was 124 % of control (dose: 50.0 mg/kg/injection, schedule: Q04DX002 (ip), vehicle: saline with Tween-80); 162 % of control and 174 % of control (dose: 200.0 mg/kg/injection, schedule: Q04DX002 (ip), vehicle: saline with Tween-80); 186 % of control and 192 % of control (dose: 400.0 mg/kg/injection, schedule: Q04DX002 (ip), vehicle: saline with Tween-80).
Consider `NCCCC(C(=O)O)N(C(=O)OCc1ccccc1)C(=O)OCc1ccccc1` (stereo unspecified), for which the T/C by setting is: under setting [6], 97 % of control; under setting [7], 101 % of control; under setting [8], 90 % of control.
In the case of `COC1=C(C)C(=O)C2=C(C1=O)[C@@H]1[C@@H]3Cc4c(OC(=O)CO)c(C)c(OC)c(O)c4[C@H](CNC(=O)C(C)=O)N3[C@@H](C#N)[C@H](C2)N1C`, the T/C was 106 % of control (dose: 0.63 mg/kg/injection, schedule: Q01DX005 (ip), vehicle: Klucel (hydroxypropylcellulose) (HPC)); 115 % of control (dose: 1.25 mg/kg/injection, schedule: Q01DX005 (ip), vehicle: Klucel (hydroxypropylcellulose) (HPC)); 120 % of control (dose: 2.25 mg/kg/injection, schedule: Q01DX005 (ip), vehicle: Klucel (hydroxypropylcellulose) (HPC)); 115 % of control (dose: 2.5 mg/kg/injection, schedule: Q01DX005 (ip), vehicle: Klucel (hydroxypropylcellulose) (HPC)); 103 % of control (dose: 625.0 micrograms/kg/injection, schedule: Q01DX005 (ip), vehicle: Klucel (hydroxypropylcellulose) (HPC)); 110 % of control (dose: 1250.0 micrograms/kg/injection, schedule: Q01DX005 (ip), vehicle: Klucel (hydroxypropylcellulose) (HPC)). In addition, the T/C by setting is: (dose: 2500.0 micrograms/kg/injection, schedule: Q01DX005 (ip), vehicle: Klucel (hydroxypropylcellulose) (HPC)) 116 % of control; (dose: 5000.0 micrograms/kg/injection, schedule: Q01DX005 (ip), vehicle: Klucel (hydroxypropylcellulose) (HPC)) 118 % of control.
Consider `O=c1[nH]c2cc([N+](=O)[O-])ccc2o1`, for which the T/C was 102 % of control under setting [5], 105 % of control under setting [9] and 105 % of control under setting [10].
Consider `CCCCN(CCCC)CCCNc1nccc2ccccc12`, for which the T/C by setting is: (dose: 6.25 mg/kg/injection, schedule: Q01DX005 (ip), vehicle: saline with Tween-80) 106 % of control; under setting [11], 103 % of control; under setting [12], 106 % of control.
`CC(=O)OC1CCC2(C)C(CCC3C2CCC2(C)C3CC(CC(=O)O)C2OC(C)=O)C1` (stereo unspecified): the T/C under setting [4] was 92 % of control, the T/C under setting [5] was 92 % of control, the T/C under setting [9] is 93 % of control and the T/C under setting [10] is 97 % of control.
Take `COC1(OC)C(C#N)(C#N)C2(C(=O)Nc3ccccc32)C1(OC)OC` (stereo unspecified): the T/C by setting is: (dose: 60.0 mg/kg/injection, schedule: Q01DX005 (ip), vehicle: Klucel (hydroxypropylcellulose) (HPC)) 97 % of control; (dose: 120.0 mg/kg/injection, schedule: Q01DX005 (ip), vehicle: Klucel (hydroxypropylcellulose) (HPC)) 101 % of control; (dose: 240.0 mg/kg/injection, schedule: Q01DX005 (ip), vehicle: Klucel (hydroxypropylcellulose) (HPC)) 103 % of control.
Take `O=[N+]([O-])c1cccc(S(=O)(=O)N/N=C\c2cc([N+](=O)[O-])ccc2O)c1`: the T/C reads like this: under setting [6], 107 % of control; under setting [7], 100 % of control; under setting [8], 97 % of control.
For `Cc1cc(NC(=O)c2ccc(N=Nc3cc(S(=O)(=O)O)c4ccccc4c3O)cc2)ccc1N=Nc1ccc2cc(S(=O)(=O)O)cc(S(=O)(=O)O)c2c1`, the T/C is 102 % of control and 97 % of control under setting [11]; 99 % of control and 97 % of control under setting [12]; 101 % of control and 111 % of control under setting [6]; 102 % of control and 109 % of control and 117 % of control under setting [7]; 101 % of control under setting [8].
`CCN1c2ccccc2S(=O)(=O)n2c(/C=C/c3ccc(OC)cc3)nnc21`: the T/C is 90 % of control (dose: 100.0 mg/kg/injection, schedule: Q01DX001 (ip), vehicle: saline with Tween-80) and 88 % of control (dose: 200.0 mg/kg/injection, schedule: Q01DX001 (ip), vehicle: saline with Tween-80).
